Reference: patent US20110124600A1, “Use of Dopamine partial agonists for treament of the restless leg syndrome and corresponding pharmaceutical preparation” (priority 2002, published 2011)
Entries after “also recorded” stand apart in the source; their conditions may differ.

Assays:
[1] = test system: restless leg syndrome (RLS) patients; conditions: prior art clinical studies, cited from earlier work; for therapeutic effectiveness in RLS: levodopa perorally in the evening, 100 to 600 mg
[2] = test system: restless leg syndrome (RLS) patients; test: Oral therapy of RLS patients with terguride (patient histories); type: in vivo, human
Source text: The invention is explained in more detail below based on examples in the form of patient histories.

[3] = cited from earlier work; for plasma half-life: in vivo
[4] = test system: sleeping pattern, REM phases; test: Effect of oral terguride on sleeping pattern / sleep profile; type: in vivo, human; conditions: 0.5 mg p.o. up to 50 mg
Experimental: A dosage of 0.5-2.5 mg is preferred. In the therapy of RLS, terguride in […] dosages apparently acts as a partial agonist, its acting especially on RLS symptoms as a complete agonist, but has little or no effect on the other intact dopaminergic control circuits that control vomiting, orthostasis and the sleep profile. Thus, there is no need to specially change the dosage with a view to side effects. At the same time, however, the desired effect begins very quickly, which is very useful if RLS symptoms occur in the evening, and leads to the patient being unable to fall asleep. Finally, if a longer duration of action is desirable, the dosage of 0.5, 1 mg or even higher can be increased without disturbing the sleep profile.

SMILES: N[C@@H](Cc1ccc(O)c(O)c1)C(=O)O [Levodopa]
- tolerance / side effects in RLS therapy [1]: generally well tolerated
- therapeutic effectiveness in RLS [1]: brief effectiveness

SMILES: CCCN[C@H]1CCc2nc(N)sc2C1 [Pramipexol]
- therapeutic effectiveness in RLS [1]: almost complete suppression of symptoms

SMILES: CCCN(CCC)CCc1cccc2c1CC(=O)N2 [Ropinirole]
- tolerance / side effects in RLS therapy [1]: fewer side effects
- therapeutic effectiveness in RLS [1]: less effective

SMILES: OC(CCN1CCCCC1)(c1ccccc1)C1CC2C=CC1C2 (stereo not shown) [biperiden]
- effect of previous treatment on RLS ([2]; Patient 2, previous treatment): little effect

SMILES: CC(C)C[C@H]1C(=O)N2CCC[C@H]2[C@]2(O)O[C@](NC(=O)[C@@H]3C=C4c5cccc6[nH]c(Br)c(c56)C[C@H]4N(C)C3)(C(C)C)C(=O)N12 [bromocriptine]
- share of perorally administered dose reaching systemic blood circulation ([3]; peroral): 6%

SMILES: C=CCN1C[C@H](C(=O)N(CCCN(C)C)C(=O)NCC)C[C@@H]2c3cccc4[nH]cc(c34)C[C@H]21 [cabergoline]
- plasma half-life [3]: more than 40 hours

SMILES: NC(=O)N1c2ccccc2C=Cc2ccccc21 [carbamazepine]
- success of previous RLS treatments ([2]; Patient 3): only moderately successful
- therapeutic effectiveness in RLS [1]: especially effective in the control of painful RLS symptoms

SMILES: NCC1(CC(=O)O)CCCCC1 [gabapentin]
- therapeutic effectiveness in RLS [1]: especially effective in the control of painful RLS symptoms

SMILES: [Mg+2] [magnesium]
- success of previous RLS treatments ([2]; Patient 3): only moderately successful

SMILES: CCCN1C[C@H](CSC)C[C@@H]2c3cccc4[nH]cc(c34)C[C@H]21 [pergolide]
- course of RLS after switch from terguride ([2]; Patient 2, later switched to pergolide): no deterioration
- plasma half-life [3]: more than 27 hours

SMILES: CCN(CC)C(=O)N[C@H]1C[C@@H]2c3cccc4[nH]cc(c34)C[C@H]2N(C)C1 [terguride]
- Epworth scale ([2]; Patient 1, daily dosage 1.5 mg orally): 12
- side effects ([2]; Patient 1, daily dosage 1.5 mg orally, long-term therapy): no side effects
- improvement of RLS ([2]; Patient 2, familial RLS, 1 mg orally): very distinct improvement
- side effects ([2]; Patient 2, 1 mg / 0.5 mg orally): no side effects
- effectiveness in RLS ([2]; Patient 2, further therapy with 0.5 mg): partial effectiveness
- course of RLS in withdrawal trial ([2]; Patient 2, withdrawal of terguride): immediate deterioration
- success of RLS treatment ([2]; Patient 3 (person two), 1 mg orally for 3 months): very good success
- side effects ([2]; Patient 3, 1 mg orally for 3 months): no side effects
- effectiveness on renewed use after stopping when RLS symptoms recurred ([2]; compared with first administration): same effectiveness
- tolerance in treatment of RLS ([2]; general statement): very good tolerance
- effectiveness in oral therapy of RLS ([2]; oral, general statement): exceptionally effective; also recorded: great effectiveness
- adverse effect on REM phases [4]: no adverse effect
- adverse effects on the sleeping pattern [4]: no adverse effects whatsoever

SMILES: Cc1ccc(-c2nc3ccc(C)cn3c2CC(=O)N(C)C)cc1 [zolpidem]
- success of previous RLS treatments ([2]; Patient 3): only moderately successful
